According to US10894772B2, “Flavor modulator having pyridine derivative or salt thereof as active ingredient” (T. HASEGAWA CO., LTD., priority 2015, dated 2021):

Legend:
Assay type in all cases: in vivo
panelists [1] = assay: Flavor evaluation of ethanol solution (bottle mouth and flavor paper); details: 1% ethanol solution, typical evaluation, 5 panelists
Procedure: (§1) A 1% ethanol solution of the invention products 1 to 6 prepared in Examples 1 to 6 was prepared as an evaluation solution. The evaluation solution was prepared in a sample bottle. Regarding the flavor of the sample smelling from the bottle mouth and the flavor of a flavor paper prepared by infiltrating the evaluation solution into a paper, well-trained 5 panelists tested the solution for flavor evaluation.
as §1, with “0.1%” for “1%”, “product 101 (2-(3-benzyloxypropyl)pyridine)” for “products 1 to 6”, “Example 101” for “Examples 1 to 6”, “evaluation. A typical evaluation of the product is as follows.” for “evaluation.”

panelists [2] = assay: Confirmation of umami in water (point score); details: average point of 10 panelists, 0 no difference from control (water), 1 somewhat stronger, 2 stronger, 3 considerably stronger, 4 poor taste balance
Procedure: As a comparative product, a solution was prepared by dissolving the comparative product 1 (2-(2-benzyloxyethyl)pyridine) to have the same concentration. Water with no addition was prepared as a control product. Well-trained 10 panelists tasted the solutions prepared by dissolving any the invention products 1 to 6 and the comparative product 1 for organoleptic evaluation of umami.
Umami evaluation was based on the control product of water.

panelists [3] = assay: Confirmation of umami imparting and saltiness enhancing effect in 0.3 mass % sodium chloride (point score); details: average point of 10 panelists vs control, 0 no change, 1 slightly higher, 2 higher, 3 considerably higher, 4 extremely higher umami and saltiness, 5 bitter as lacking balance
Procedure: An aqueous 0.3 mass % sodium chloride solution (control), and solutions of the invention products 1 to 6 each dissolved in a 0.3 mass % sodium chloride solution to have the concentration shown in Table 5 were prepared. As a comparative product, a solution was prepared by dissolving the comparative product 1 in 0.3 mass % sodium chloride. Well-trained 10 panelists tasted the solutions for organoleptic evaluation of umami impartment and saltiness enhancement.
Umami and saltiness scores are as follows, based on the aqueous 0.3 mass % sodium chloride solution as a control. Each sample was given any of a point 0, no change from control; 1, slightly higher umami and saltiness than control; 2, higher umami and saltiness than control; 3, considerably higher umami and saltiness than control; 4, extremely higher umami and saltiness than control; and 5, bitter as lacking balance of umami and saltiness.

[4] = 0.05 ppb in aqueous 0.3 mass % sodium chloride solution
[5] = 0.1 ppb in aqueous 0.3 mass % sodium chloride solution
[6] = 0.1 ppm in aqueous 0.3 mass % sodium chloride solution
[7] = 0.5 ppm in aqueous 0.3 mass % sodium chloride solution
[8] = 1 ppb in aqueous 0.3 mass % sodium chloride solution
[9] = 2 ppm in aqueous 0.3 mass % sodium chloride solution
[10] = 10 ppb in aqueous 0.3 mass % sodium chloride solution
[11] = 10 ppm in aqueous 0.3 mass % sodium chloride solution
[12] = 50 ppm in aqueous 0.3 mass % sodium chloride solution

SMILES	Flavor Evaluation (panelists [1])	umami (average point) (panelists [2]; 0.1 ppm in water)	umami (average point) (panelists [2]; 1 ppm in water)	umami (average point) (panelists [2]; 2 ppb in water)	umami (average point) (panelists [2]; 10 ppb in water)	umami (average point) (panelists [2]; 20 ppm in water)	umami (average point) (panelists [2]; 200 ppm in water)	umami (average point) (panelists [2]; 500 ppm in water)	umami (average point) (panelists [2]; 2000 ppm in water)	umami and saltiness (average point) (panelists [3]; [4])	umami and saltiness (average point) (panelists [3]; [5])	umami and saltiness (average point) (panelists [3]; [6])	umami and saltiness (average point) (panelists [3]; [7])	umami and saltiness (average point) (panelists [3]; [8])	umami and saltiness (average point) (panelists [3]; [9])	umami and saltiness (average point) (panelists [3]; [10])	umami and saltiness (average point) (panelists [3]; [11])	umami and saltiness (average point) (panelists [3]; [12])
c1ccc(CCOCCc2ccccn2)cc1 [invention product 2, 2-(2-phenylethoxyethyl)pyridine]	Earthy, hyacinthine	1.5	2.0	0.0	0.7	2.8	3.2	3.8	4.0	0.0	0.7	3.0	3.9	1.5	4.4	2.4	4.6	5.0
c1ccc(COCCCCc2ccccn2)cc1 [invention product 1, 2-(4-benzyloxybutyl)pyridine]	Earthy	1.6	2.3	0.0	0.8	2.9	3.4	3.8	4.0	0.0	0.8	3.2	3.7	1.4	4.3	2.3	4.7	4.9
Cc1ccc(C)c(COCCCc2ccccn2)c1 [invention product 6, 2-[3-(2,5-dimethylbenzyloxy)propyl]pyridine]	Rummy	1.2	2.0	0.0	0.5	2.6	3.0	3.6	3.9	0.0	0.5	2.9	3.5	1.3	4.1	2.0	4.6	4.8
Cc1ccc(COCCCc2ccccn2)cc1 [invention product 5, 2-[3-(p-methylbenzyloxy)propyl]pyridine]	Nutty	1.4	2.0	0.0	0.6	2.7	3.1	3.6	3.9	0.0	0.8	3.0	3.6	1.5	4.2	2.2	4.6	4.8
c1ccc(CCSCCc2ccccn2)cc1 [invention product 4, 2-(2-phenylethylthioethyl)pyridine]	Metallic spicy savor	1.6	2.2	0.0	0.7	3.0	3.6	3.9	4.0	0.0	0.6	3.4	3.8	1.8	4.5	2.3	4.8	5.0
COc1ccc(COCCCc2ccccn2)cc1 [invention product 3, 2-[3-(p-methoxybenzyloxy)propyl]pyridine]	Bitter almond	1.4	2.1	0.0	0.8	2.8	3.0	3.6	3.9	0.0	0.8	3.3	3.5	1.6	4.2	2.6	4.8	4.9
